# According to US7122523B2, “Methods for inhibiting tumor cell proliferation” (University of Southern California, priority 2001, dated 2006):
# Entries after “also recorded” stand apart in the source; their conditions may differ.
# Experiment: Test of effectiveness of AII fragments (test not specified)
# Settings: repeated tests
substance,measurement,value
Tyr-Ile-His-Pro-Phe (YIHPF) [AII(4-8)],effectiveness as active agent,not to be effective; also recorded: ineffective
